As usually defined, the IC50 is the concentration needed to halve the response being measured.

Consider two compounds from ChEMBL document CHEMBL5030552, “Computational Design of Potent D-Peptide Inhibitors of SARS-CoV-2” (J Med Chem, 2021).

For assay [1], the system named is SARS-CoV-2. The assay is described as follows: Antiviral activity against SARS-CoV-2 B.1.1.7 variant assessed as neutralization viral infection in Vero cells by measuring cytopathic effect incubated for 4 days by crystal violet staining based assay. It counts as functional, organism-based. The following applies: Severe acute respiratory syndrome coronavirus 2, B.1.1.7, Vero, 96 h. (Damage to the host cells serves as the signal in cytopathic effect assays.)

For assay [2], the system named is SARS-CoV-2. The assay is described as follows: Antiviral activity against SARS-CoV-2 B.1.351 variant assessed as neutralization viral infection in Vero cells by measuring cytopathic effect incubated for 4 days by crystal violet staining based assay. It counts as functional, organism-based. The following applies: Severe acute respiratory syndrome coronavirus 2, B.1.351, Vero, 96 h.

Each structure is given as a SMILES string.

As to `CC[C@@H](C)[C@@H](NC(=O)CNC(=O)[C@@H](CC(C)C)NC(=O)CNC(=O)[C@@H](CCCCN)NC(=O)CNC(=O)[C@@H](CC(=O)O)NC(=O)[C@@H](Cc1ccccc1)NC(=O)[C@H](N)CCCNC(=N)N)C(=O)N[C@H](Cc1ccc(O)cc1)C(=O)N[C@H](CCC(N)=O)C(=O)N[C@H](Cc1ccc(O)cc1)C(=O)N[C@H](CCSC)C(=O)N[C@H](CCC(=O)O)C(=O)N[C@H](CCC(=O)O)C(=O)N[C@@H](C(=O)N[C@H](CCC(=O)O)C(=O)N[C@H](Cc1cnc[nH]1)C(=O)N[C@H](C)C(=O)N[C@H](C)C(=O)N[C@H](CO)C(=O)N[C@H](CCCNC(=N)N)C(=O)N[C@H](Cc1ccccc1)C(=O)N[C@H](C)C(=O)N[C@H](Cc1ccc(O)cc1)C(=O)N[C@H](Cc1ccccc1)C(=O)N[C@H](Cc1ccccc1)C(=O)N[C@H](Cc1ccc(O)cc1)C(=O)N[C@H](CCC(N)=O)C(=O)N[C@H](Cc1cnc[nH]1)C(=O)N[C@H](CC(C)C)C(=O)N[C@H](C)C(=O)O)[C@H](C)CC`, the IC50 in the assay on SARS-CoV-2 [1] amounted to 33.4 µM; with SARS-CoV-2 [2] it was 11.1 µM.
The matching figures for `CC[C@@H](C)[C@@H](NC(=O)[C@@H](Cc1cnc[nH]1)NC(=O)[C@H](NC(=O)[C@@H](CCC(=O)O)NC(=O)[C@@H](CCC(=O)O)NC(=O)[C@@H](CCSC)NC(=O)[C@@H](CC(C)C)NC(=O)[C@@H](C)NC(=O)[C@@H](Cc1ccc(O)cc1)NC(=O)[C@@H](CC(C)C)NC(=O)[C@@H](C)NC(=O)[C@H](NC(=O)[C@@H](CCC(N)=O)NC(=O)[C@H](N)CC(C)C)[C@H](C)O)[C@H](C)CC)C(=O)N[C@H](C)C(=O)N[C@H](C)C(=O)N[C@H](CC(C)C)C(=O)N[C@H](CCC(=O)O)C(=O)N[C@H](CCCCN)C(=O)N[C@@H](C(=O)N[C@H](Cc1c[nH]c2ccccc12)C(=O)N[C@@H](C(=O)N[C@H](C)C(=O)N[C@H](CC(C)C)C(=O)N[C@H](CCCNC(=N)N)C(=O)N[C@H](Cc1cnc[nH]1)C(=O)N[C@H](CCC(N)=O)C(=O)N[C@H](Cc1ccc(O)cc1)C(=O)N[C@@H](C(=O)O)[C@H](C)O)[C@H](C)O)[C@H](C)O`: 5.57 µM and 7.37 µM.
